Source: ChEMBL document CHEMBL1156403, “A new dimeric dihydrochalcone and a new prenylated flavone from the bud covers of Artocarpus altilis: potent inhibitors of cathepsin K” (J Nat Prod, 2002)
pIC50: −log10 of the molar value.

The compounds below were run against T1, Cathepsin K (Homo sapiens, UniProt P43235) (assay: Inhibition of cathepsin K by fluorimetric assay).
T1 sequence (P43235 whole entry): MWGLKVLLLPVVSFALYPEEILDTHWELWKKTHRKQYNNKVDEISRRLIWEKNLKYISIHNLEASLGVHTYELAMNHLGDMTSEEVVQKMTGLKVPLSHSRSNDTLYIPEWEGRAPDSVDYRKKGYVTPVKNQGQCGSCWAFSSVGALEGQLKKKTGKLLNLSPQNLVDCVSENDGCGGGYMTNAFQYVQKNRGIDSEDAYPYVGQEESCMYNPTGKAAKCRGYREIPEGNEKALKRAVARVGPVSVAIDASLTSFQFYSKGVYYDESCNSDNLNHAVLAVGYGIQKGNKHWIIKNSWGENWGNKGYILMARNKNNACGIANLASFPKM

| pIC50 | SMILES |
| --- | --- |
| 6.77 | CC(C)=CCC/C(C)=C/Cc1c(CCC(=O)c2ccc(O)cc2O)ccc(O)c1O |
| 6.08 | CC(C)=CCCC1(C)C=Cc2c(cc(O)c3c2OC(c2ccc(O)cc2)CC3=O)O1 (stereo not drawn) [CYCLOALTILISIN 7] |

| SMILES | pIC50 |
| --- | --- |
| CC(C)=CCC/C(C)=C/Cc1c(CCC(=O)c2ccc(O)cc2O)cc(-c2cc(O)c(O)c(C/C=C(\C)CCC=C(C)C)c2CCC(=O)c2ccc(O)cc2O)c(O)c1O [CYCLOALTILISIN 6] | 7.01 |
